Measured values reported in patent US9598389B2, “Dihydrobenzofuran derivatives as insecticidal compounds” (SYNGENTA PARTICIPATIONS AG, priority 2013, dated 2017).

Legend:
Assay type in all cases: in vivo
[1] = tested on: Heliothis virescens (Tobacco Budworm); assay: Heliothis virescens egg/larval test on artificial diet; settings: application rate of 200 ppm, eggs 0-24 h old, 5 days after infestation, read-out: egg or larval mortality
Procedure: Heliothis virescens (Tobacco Budworm):
Eggs (0-24 h old) were placed in 24-well microtiter plates on artificial diet and treated with aqueous test solutions prepared from 10,000 ppm DMSO stock solutions by pipetting. The samples were assessed for egg and larval mortality 5 days after infestation.

[2] = tested on: Spodoptera Littoralis (Egyptian Cotton Leaf Worm); assay: Spodoptera littoralis cotton leaf disc spray test; settings: foliar, 72 h, application rate of 200 ppm, L1 larvae, 3 days after infestation, read-out: control (at least one of mortality, anti-feedant effect, growth inhibition)
Procedure: Spodoptera Littoralis (Egyptian Cotton Leaf Worm)
Cotton leaf discs were placed on agar in 24-well microtiter plates and sprayed with aqueous test solutions prepared from 10,000 ppm DMSO stock solutions. After drying the leaf discs were infested with five L1 larvae. The samples were assessed for mortality, anti-feedant effect, and growth inhibition in comparison to untreated samples 3 days after infestation. Control of Spodoptera littoralis by a test sample is when at least one of mortality, anti-feedant effect, and growth inhibition is higher than the untreated sample.

[3] = tested on: Plutella xylostella (Diamond Back Moth); assay: Plutella xylostella L2 larvae test on artificial diet; settings: 120 h, application rate of 200 ppm, 5 days after infestation, read-out: effect in at least one of the two categories (mortality or growth inhibition)
Procedure: Plutella xylostella (Diamond Back Moth):
24-well microtiter plates with artificial diet were treated with aqueous test solutions prepared from 10,000 ppm DMSO stock solutions by pipetting. After drying, the plates were infested with L2 larvae (10 to 15 per well). The samples were assessed for mortality and growth inhibition in comparison to untreated samples 5 days after infestation.

[4] = tested on: Diabrotica balteata (Corn Root Worm); assay: Diabrotica balteata L2 larvae test on artificial diet; settings: 120 h, application rate of 200 ppm, 5 days after infestation, read-out: effect in at least one of the two categories (mortality or growth inhibition)
Procedure: Diabrotica balteata (Corn Root Worm):
24-well microtiter plates with artificial diet were treated with aqueous test solutions prepared from 10,000 ppm DMSO stock solutions by pipetting. After drying, the plates were infested with L2 larvae (6 to 10 per well). The samples were assessed for mortality and growth inhibition in comparison to untreated samples 5 days after infestation.

[5] = tested on: Myzus persicae (Green Peach Aphid); assay: Myzus persicae sucrose solution feeding test; settings: 120 h, test rate of 12 ppm, 5 days after infestation
Procedure: Myzus persicae (Green Peach Aphid)
Test compounds from 10,000 ppm DMSO stock solutions were applied by pipette into 24-well microtiter plates and mixed with sucrose solution. The plates were closed with a stretched Parafilm. A plastic stencil with 24 holes was placed onto the plate and infested pea seedlings were placed directly on the Parafilm. The infested plate was closed with a gel blotting paper and another plastic stencil and then turned upside down. The samples were assessed for mortality 5 days after infestation.

[6] = tested on: Thrips tabaci (Onion Thrips); assay: Thrips tabaci sunflower leaf disc spray test; settings: foliar, 144 h, application rate of 200 ppm, population of mixed ages, 6 days after infestation
Procedure: Thrips tabaci (Onion Thrips):
Sunflower leaf discs were placed on agar in 24-well microtiter plates and sprayed with aqueous test solutions prepared from 10,000 ppm DMSO stock solutions. After drying the leaf discs were infested with a thrips population of mixed ages. The samples were assessed for mortality 6 days after infestation.

[7] = tested on: Tetranychus urticae (Two-Spotted Spider Mite); assay: Tetranychus urticae bean leaf disc spray test; settings: foliar, 192 h, application rate of 200 ppm, 8 days after infestation, read-out: mortality on mixed population (mobile stages)
Procedure: Tetranychus urticae (Two-Spotted Spider Mite):
Bean leaf discs on agar in 24-well microtiter plates were sprayed with aqueous test solutions prepared from 10,000 ppm DMSO stock solutions. After drying the leaf discs were infested with a mite population of mixed ages. The samples were assessed for mortality on mixed population (mobile stages) 8 days after infestation.

O=C(Nc1cccc(-c2ccc3c(c2)CC(c2cc(Cl)cc(Cl)c2)(C(F)(F)F)O3)c1F)C1CC1 (stereo not shown) [Compound 42, N-(3-(2-(3,5-dichlorophenyl)-2-(trifluoromethyl)-2,3-dihydrobenzofuran-5-yl)-2-fluorophenyl)cyclopropanecarboxamide]
≥ 80%: mortality at 200 ppm [1] | percent control (mortality, anti-feedant effect or growth inhibition) at 200 ppm [2]

CCC(=O)Nc1ccnc(-c2cc3c(cc2Cl)OC(c2cc(Cl)cc(Cl)c2)(C(F)(F)F)C3)c1 (stereo not shown) [Compound 136, N-[2-[6-chloro-2-(3,5-dichlorophenyl)-2-(trifluoromethyl)-3H-benzofuran-5-yl]-4-pyridyl]propanamide]
≥ 80%: mortality at 200 ppm [1] | percent control (mortality, anti-feedant effect or growth inhibition) at 200 ppm [2] | percent effect (mortality or growth inhibition) at 200 ppm [3]

O=C(Nc1cc(-c2ccc3c(c2)CC(c2cc(Cl)cc(Cl)c2)(C(F)(F)F)O3)ccn1)C1CC1 (stereo not shown) [Compound 137, N-[4-[2-(3,5-dichlorophenyl)-2-(trifluoromethyl)-3H-benzofuran-5-yl]-2-pyridyl]cyclopropanecarboxamide]
≥ 80%: percent effect (mortality or growth inhibition) at 200 ppm [4] | mortality at 200 ppm [1] | percent control (mortality, anti-feedant effect or growth inhibition) at 200 ppm [2] | percent effect (mortality or growth inhibition) at 200 ppm [3]

O=C(Nc1cccc(-c2ccc3c(c2)CC(c2cc(Cl)cc(Cl)c2)(C(F)(F)F)O3)c1)C1CC1 (stereo not shown) [Compound 141, N-(3-(2-(3,5-dichlorophenyl)-2-(trifluoromethyl)-2,3-dihydrobenzofuran-5-yl)phenyl)cyclopropanecarboxamide]
≥ 80%: mortality at 12 ppm [5] | percent effect (mortality or growth inhibition) at 200 ppm [4] | mortality at 200 ppm [1] | percent control (mortality, anti-feedant effect or growth inhibition) at 200 ppm [2] | percent effect (mortality or growth inhibition) at 200 ppm [3] | mortality at 200 ppm [6]

O=C(Nc1cccc(-c2ccc3c(c2)CC(c2cccc(C(F)(F)F)c2)(C(F)(F)F)O3)c1)C1CC1 (stereo not shown) [Compound 182, N-(3-(2-(trifluoromethyl)-2-(3-(trifluoromethyl)phenyl)-2,3-dihydrobenzofuran-5-yl)phenyl)cyclopropanecarboxamide]
≥ 80%: mortality at 200 ppm [1] | percent control (mortality, anti-feedant effect or growth inhibition) at 200 ppm [2] | percent effect (mortality or growth inhibition) at 200 ppm [3]

CCC(=O)Nc1cc(-c2ccc3c(c2)CC(c2cc(Cl)cc(Cl)c2)(C(F)(F)F)O3)ccc1C#N (stereo not shown) [Compound 198, N-[2-cyano-5-[2-(3,5-dichlorophenyl)-2-(trifluoromethyl)-3H-benzofuran-5-yl]phenyl]propanamide]
≥ 80%: mortality at 12 ppm [5] | mortality at 200 ppm [7] | percent effect (mortality or growth inhibition) at 200 ppm [4] | mortality at 200 ppm [1] | percent control (mortality, anti-feedant effect or growth inhibition) at 200 ppm [2] | percent effect (mortality or growth inhibition) at 200 ppm [3] | mortality at 200 ppm [6]

O=C1CCCN1c1cccc(-c2ccc3c(c2)CC(c2cc(Cl)cc(Cl)c2)(C(F)(F)F)O3)c1 (stereo not shown) [Compound 254, 1-{3-[2-(3,5-Dichloro-phenyl)-2-trifluoromethyl-2,3-dihydro-benzofuran-5-yl]-phenyl}-pyrrolidin-2-one]
≥ 80%: percent effect (mortality or growth inhibition) at 200 ppm [3]

N#Cc1ccc(-c2ccc3c(c2)CC(c2cc(Cl)cc(Cl)c2)(C(F)(F)F)O3)cc1N1CCCC1=O (stereo not shown) [Compound 261, 4-[2-(3,5-Dichloro-phenyl)-2-trifluoromethyl-2,3-dihydro-benzofuran-5-yl]-2-(2-oxo-pyrrolidin-1-yl)-benzonitrile]
≥ 80%: percent control (mortality, anti-feedant effect or growth inhibition) at 200 ppm [2] | percent effect (mortality or growth inhibition) at 200 ppm [3]

CCC(=O)Nc1cc(-c2ccc3c(c2)CC(c2cc(Cl)cc(Cl)c2)(C(F)(F)F)S3)ccc1C#N (stereo not shown) [Compound 267, N-{2-Cyano-5-[2-(3,5-dichloro-phenyl)-2-trifluoromethyl-2,3-dihydro-benzo[b]thiophen-5-yl]-phenyl}-propionamide]
≥ 80%: percent control (mortality, anti-feedant effect or growth inhibition) at 200 ppm [2] | percent effect (mortality or growth inhibition) at 200 ppm [3]

CCC(=O)Nc1cccc(-c2ccc3c(c2)CC(c2cc(Cl)cc(Cl)c2)(C(F)(F)F)S3)c1 (stereo not shown) [Compound 268, N-[3-[2-(3,5-dichlorophenyl)-2-(trifluoromethyl)-3H-benzothiophen-5-yl]phenyl]propanamide]
≥ 80%: mortality at 12 ppm [5] | percent control (mortality, anti-feedant effect or growth inhibition) at 200 ppm [2] | percent effect (mortality or growth inhibition) at 200 ppm [3] | mortality at 200 ppm [6]

CCC(=O)Nc1cccc(-c2ccc3c(c2)CC(c2cc(Cl)cc(Cl)c2)(C(F)(F)F)C3=O)c1 (stereo not shown) [Compound 269, N-{3-[2-(3,5-Dichloro-phenyl)-1-oxo-2-trifluoromethyl-indan-5-yl]-phenyl}-propionamide]
≥ 80%: percent effect (mortality or growth inhibition) at 200 ppm [4] | mortality at 200 ppm [1] | percent control (mortality, anti-feedant effect or growth inhibition) at 200 ppm [2] | percent effect (mortality or growth inhibition) at 200 ppm [3] | mortality at 200 ppm [6]

CCC(=O)Nc1cccc(-c2ccc3c(c2)CC(c2cc(Cl)cc(Cl)c2)(C(F)(F)F)C3O)c1 (stereo not shown) [Compound 270, N-{3-[2-(3,5-Dichloro-phenyl)-1-hydroxy-2-trifluoromethyl-indan-5-yl]-phenyl}-propionamide]
≥ 80%: percent effect (mortality or growth inhibition) at 200 ppm [4] | mortality at 200 ppm [1] | percent control (mortality, anti-feedant effect or growth inhibition) at 200 ppm [2] | percent effect (mortality or growth inhibition) at 200 ppm [3]
